# Reference: patent US7906110B2, “Rapid preparation of stem cell matrices for use in tissue and organ treatment and repair” (University of Pittsburgh—of the Commonwealth System of …, priority 2001, dated 2011)
# Test system: spontaneous contractile activity of MDSC/SIS preparations
# Assay: Pharmacological evaluation on spontaneous contractile activity of MDSC/SIS
# Type: cell-based
# Conditions: for effect on spontaneous contractile activity in MDSC/SIS specimens: added to bath: carbachol 10 and 20 μM, KCI 7%, 1 M, EGTA 200 μM in Ca++-free Krebs
# Method: Twenty five preparations of MDSC/SIS and twenty five control preparations of SIS only were incubated at 37° C. for 1, 4, or 8 weeks. The specimens were then mounted in a thermally controlled bath of 5 ml at 37° C. in Krebs solution (mmol/L: NaCl, 113; KCI, 4.7; CaCl2,1.25; MgSO4,1.2; NaHCO3, 25; KH2PO4, 1.2 and glucose, 11.5) with a mixture of 95% 02 and 5% C02. The frequency and amplitude of isometric contractions were measured with strain gauge transducers coupled with a TBM4 strain gauge amplifier and recorded on a computer using a data acquisition program (Windaq, DATAQ Instruments Inc. Akron, Ohio). After 60 minutes of equilibration, electrical field stimuli (10 Hz, 150 volt, 0.5 ms, 60 sec) were applied in the bath. Pharmacological evaluations were performed with succinylcholine (S-Chol), (4, 10 and 20 μM); carbachol (10 and 20 μM); KCI, (7%, 1 M); Ca^++-free Krebs solution with EGTA (200 μM); or distilled water, were each added to the bath sequentially at 30 minute intervals. The frequency, amplitude, and pattern of contraction of the specimens were compared among the different groups.
structure (smiles),measurement,setting,value
O=C(O)CN(CCOCCOCCN(CC(=O)O)CC(=O)O)CC(=O)O [EGTA],effect on spontaneous contractile activity in MDSC/SIS specimens,,blocked
[Cl-].[K+] [KCI],effect on spontaneous contractile activity in MDSC/SIS specimens,,did not alter
C[N+](C)(C)CCOC(N)=O [carbachol],effect on spontaneous contractile activity in MDSC/SIS specimens,,did not alter
C[N+](C)(C)CCOC(=O)CCC(=O)OCC[N+](C)(C)C [succinylcholine],"effect on frequency, amplitude or pattern of spontaneous activity","4 μM, any of the preparations",did not alter
same,frequency and amplitude of spontaneous contractile activity decreased,"4-week MDSC/SIS, 10 μM",2 of 5
same,frequency and amplitude of spontaneous contractile activity decreased,"4-week MDSC/SIS, 20 μM",5 of 5
same,spontaneous contractile activity blocked,"4-week MDSC/SIS, 20 μM",2 of 5
same,frequency and amplitude of spontaneous contractile activity decreased,"8-week MDSC/SIS, 10 μM",8 of 8
same,effect on frequency and amplitude of spontaneous contractile activity,"8-week MDSC/SIS, 20 μM",decreased
same,spontaneous contractile activity blocked,"8-week MDSC/SIS, 20 μM",5 of 8
same,reversibility of suppressant effects,after washout of the drug,reversible
